Tested on: macrophages derived from BALB/c mice
Assay: Extracellular nitric oxide released by macrophages, measured with fiber sensors
Format: cell-based
Conditions: FIG. 19; macrophages treated with LPS and INF-γ and inhibited with 1 mM inhibitor
Description: Specifically, said sensors were placed in solution, approximately 0.5 cm from the macrophages.
In one embodiment, the above referenced sensors were used to quantify nitric oxide production by macrophages derived from BALB/c mice. […] Some macrophages were activated by overnight incubation with medium containing 100 U/mL IFN-γ enzyme Corp., Cambridge, Mass.) and 100 ng/mL LPS (List Biological Labs, Inc., Campbell, Calif.). In addition, to activation with IFN-γ and LPS, some cells were also treated with NMMA, (Sigma) to inhibit the production of nitric oxide. Prior to nitric oxide determinations, the macrophages were removed from incubation. For inactivated macrophages, the medium was exchanged for 2 mL Ringer's buffer. […] During measurements, the cells were kept at ambient temperature (25° C.) and 7.5 mg/mL propidium iodide was used to ascertain the degree of cell viability.
In another embodiment, macrophages were derived from the tibia and femur bone marrow of Harlan Sprague-Dawley BALB/c mice were cultured and plated by methods similar to previously published methods. For extracellular measurements with fiber sensors the cells where plated at a density of 2×10^5 on 25 mm coverslips, while those to be used for scrape-loading were plated onto 35 mm petri dishes (Nunc) at a density of 2×10^6. […]

For `CNC(=N)NCCC[C@H](N)C(=O)O` [Nω-monomethyl-L-arginine, N^ω-monomethyl-L-arginine], which “[NO]” value is on record?
The value was 20 µM.
